Measurements published in patent US20170153247A1, “METHOD FOR RISK ASSESSMENT OF ALLERGIC REACTION” (Excelsior Bio-System Incorporation, priority 2015, published 2017).

Columns and labels:
[1] = tested on: binding between IgE in serum sample U and crab antigens; assay: IgE inhibition experiment, conventional protein array spotted with crab antigens; set-up: species or system human
Method: (§1) The sample serum is diluted with diluent buffer containing adequate amount of BSA, no-fat milk, and Tween-20. The peptide array of the present embodiment is incubated with each serum sample respectively at 37° C. for 1 hour. A wash buffer containing Tween-20 is added to the reaction area of the peptide array to wash out extra serum. Anti-human IgE antibody labeled with Cy3 is added to the reaction area of the peptide array. The anti-human IgE with Cy3 binds on antibodies in the sample serum that binds to the peptide probes in the reaction area. The peptide array is then incubated
(§2) at 37° C. for 1 hour in darkness. The diluent, wash buffer, and anti-human IgE with Cy3 is provided by EBS Immunoflourescence Specific IgE Assay. A laser scanner with FD532 nm detector is utilized to scan the peptide array after incubation. The intensities of FD532 nm of each peptide probe on the peptide array can be obtained. For protein arrays the positive values are highlighted, while for peptide arrays the numbers (No.) of the peptide probes showing positive values are listed. […] For the peptide array of the present embodiment, although all of the peptide probes are derived from antigens of house dust mites, only a number of probes are bound to the serum samples and generate positive results.
(§3) Generally, the serum sample U is incubated with different concentration Der-p10-17 peptide (#60) for 30 minutes, and then serum sample U is transferred on conventional protein arrays spotted with crab, shrimp, dust mite and house dust mite antigens. In each of these arrays, different reaction blocks represent serum sample U incubated with different concentrations of Der-p10-17 (#60), where X1 is serum sample U incubated with the original concentration of Der-p10-17 (#60). X2 is serum sample U incubated with 2-fold dilution of the original concentration, X4 is serum sample U incubated with a 4-fold dilution and X8 is serum sample U incubated with an 8-fold dilution. The experiment protocol in Table 5A-5D and FIGS. 12A-12D may refer to the IgE immunofluorescence assay used in Table 4. The F532 nm intensity value of crabs, shrimps, dust mites, and house mites are shown respectively. Various concentrations of Der-p10-17 peptide (#60) are tested to evaluate the dependence of inhibition on the inhibitor peptide concentration. The results of the IgE inhibition experiments are presented in FIGS. 12A-12D and Tables 5A-5D.

[2] = tested on: binding between IgE in serum sample U and house dust mite antigens; assay: IgE inhibition experiment, conventional protein array spotted with house dust mite antigens; set-up: species or system human
Method: (§4) The sample serum is diluted with diluent buffer containing adequate amount of BSA, no-fat milk, and Tween-20. The peptide array of the present embodiment is incubated with each serum sample respectively at 37° C. for 1 hour. A wash buffer containing Tween-20 is added to the reaction area of the peptide array to wash out extra serum. Anti-human IgE antibody labeled with Cy3 is added to the reaction area of the peptide array. The anti-human IgE with Cy3 binds on antibodies in the sample serum that binds to the peptide probes in the reaction area. The peptide array is then incubated at 37° C. for 1 hour in darkness. The diluent, wash buffer, and anti-human IgE with Cy3 is provided by EBS Immunoflourescence Specific IgE Assay. A laser scanner with FD532 nm detector is utilized to scan the peptide array after incubation. The intensities of FD532 nm of each peptide probe on the peptide array can be obtained. For protein arrays the positive values are highlighted, while for peptide arrays the numbers (No.) of the peptide probes showing positive values are listed. […] For the peptide array of the present embodiment, although all of the peptide probes are derived from antigens of house dust mites, only a number of probes are bound to the serum samples and generate positive results. Generally, the serum sample U is incubated with different concentration Der-p10-17 peptide (#60) for 30 minutes, and then serum sample U is transferred on conventional protein arrays spotted with crab, shrimp, dust mite and house dust mite antigens. In each of these arrays, different reaction blocks represent serum sample U incubated with different concentrations of Der-p10-17 (#60), where X1 is serum sample U incubated with the original concentration of Der-p10-17 (#60). X2 is serum sample U incubated with 2-fold dilution of the original concentration, X4 is serum sample U incubated with a 4-fold dilution and X8 is serum sample U incubated with an 8-fold dilution. The experiment protocol in Table 5A-5D and FIGS. 12A-12D may refer to the IgE immunofluorescence assay used in Table 4. The […] nm intensity value of crabs, shrimps, dust mites, and house mites are shown respectively. Various concentrations of Der-p10-17 peptide (#60) are tested to evaluate the dependence of inhibition on the inhibitor peptide concentration. The results of the IgE inhibition experiments are presented in FIGS. 12A-12D and Tables 5A-5D.

[3] = tested on: specific IgE in serum samples; assay: Serum samples analysis on peptide array (IgE immunofluorescence assay); type: binding, human
Text: A plurality of peptide probes are synthesized according to each of the above peptide fragments of Der p1, Der p2, and Der p10. Theses synthesized peptide probes are spotted on a solid surface to construct a peptide array. The peptide array includes at least one reaction area, and each reaction area includes at least one reaction block. […] The peptide array of FIG. 11 includes at least one reaction area, and each reaction area includes 4 reaction blocks, namely R1, R2, R3, and R4.
Serum samples are used and labeled to evaluate the peptide array of the present embodiment. The labeled serum samples include 23 positive serum samples obtained from patients showing allergy symptoms, one negative serum sample, and one blank. Conventional protein arrays are also used in the test, probes for which being allergens extracted from allergenic substances derived from natural origins, such as crabs, shrimps, dust mites (Dermatophagoides farinae), house dust mites and storage mites (Blomia tropicalis). Group 10 allergens (tropomyosins) have been assumed to be a major cause of cross-reactivity between house dust mites and other invertebrates.
The sample serum is diluted with diluent buffer containing adequate amount of BSA, no-fat milk, and Tween-20. The peptide array of the present embodiment is incubated with each serum sample respectively at 37° C. for 1 hour. […]

[4] = tested on: binding between IgE in serum sample U and shrimp antigens; assay: IgE inhibition experiment, conventional protein array spotted with shrimp antigens; set-up: species or system human
Method: as §1, §2, §3

[5] = tested on: binding between IgE in serum sample U and dust mite antigens; assay: IgE inhibition experiment, conventional protein array spotted with dust mite antigens; set-up: species or system human
Method: as §4

[6] = Block 2-X8, serum sample U pre-incubated 30 minutes with 8-fold dilution of peptide
[7] = Block 3-X4, 4-fold dilution of peptide
[8] = Block 4-X2, 2-fold dilution of peptide
[9] = Block 5-X1, original concentration of peptide

F532 nm intensity value, crabs ([1]; Block 2-X8): 14893
F532 nm intensity value, crabs [1, 6]: 15148
F532 nm intensity value, crabs ([1]; Block 3-X4, serum sample U pre-incubated with 4-fold dilution of peptide): 11803
F532 nm intensity value, crabs ([1]; Block 4-X2, serum sample U pre-incubated with 2-fold dilution of peptide): 10695
F532 nm intensity value, crabs ([1]; Block 5-X1, serum sample U pre-incubated with original concentration of peptide): 13067
F532 nm intensity value, house dust mites [2, 6]: 3288
F532 nm intensity value, house dust mites [2, 7]: 3247
F532 nm intensity value, house dust mites [2, 8]: 3659
F532 nm intensity value, house dust mites [2, 9]: 4288
binding of peptide probe to IgE in serum samples ([3]; peptide array): can bind to IgE in serum samples
F532 nm intensity value, shrimps ([4]; Block 2-X8): 16678
F532 nm intensity value, shrimps [4, 6]: 17902
F532 nm intensity value, shrimps [4, 7]: 14759
F532 nm intensity value, shrimps [4, 8]: 14481
F532 nm intensity value, shrimps [4, 9]: 15396
F532 nm intensity value, dust mites ([5]; Block 2-X8): 5767
F532 nm intensity value, dust mites [5, 6]: 5979
F532 nm intensity value, dust mites [5, 7]: 4767
F532 nm intensity value, dust mites [5, 8]: 4428
F532 nm intensity value, dust mites [5, 9]: 5475
Sequence: ELDQTFAELTGY [Der-p10-17]
inhibition of IgE cross-linking / decrease of intensity values, crab ([1]; serum sample U): can inhibit the IgE cross-linking between shrimp and crab
inhibition of binding between IgE and antigens extracted from natural house dust mites ([2]; serum sample U): can inhibit the binding between IgE and antigens extracted from natural house dust mites
reactivity of serum sample U on the peptide array ([3]; serum sample U, Table 4): reactive
inhibition of IgE cross-linking / decrease of intensity values, shrimp ([4]; serum sample U): can inhibit the IgE cross-linking between shrimp and crab
